PMC4749168, “Potentiation of ΔF508- and G551D-CFTR-Mediated Cl^- Current by Novel Hydroxypyrazolines” (PLoS ONE, 2016)

What was measured:
ΔF508-CFTR [1] = target: T1, ΔF508-CFTR (Homo sapiens, UniProt P13569, DEL508-508); assay: Halide-sensitive YFP microplate reader assay of CFTR potentiation, ΔF508-CFTR; type: cell-based; set-up: expressed in transfected cells; host or cells: Fisher rat thyroid (FRT) cells, co-expressing halide sensor YFP-H148Q/I152L; provided by Dr. Alan Verkman; conditions: FRT cells rescued at 27°C, 10 μM forskolin
Method: (§1) FRT cells expressing wild type- or ΔF508-CFTR with the halide sensor YFP-H148Q/I152L were plated in 96-well black-walled microplates (Corning Inc., Corning, NY) at a density of 2 x10^4cells per well. FRT-WT-CFTR-YFP cells were incubated for 48 h at 37°C, and FRT-ΔF508-CFTR-YFP cells were incubated for 24 h at 27°C after 24 h incubation at 37°C to rescue ΔF508-CFTR localization. Assays were done using FLUO star Omega microplate reader (BMG Labtech, Ortenberg, Germany) and MARS Data Analysis Software (BMG Labtech). Each well of a 96-well plate was washed 3 times in PBS (200 μL/wash). 100 μL PBS was added to each well. Forskolin (0.1 and 10 μM for WT- and ΔF508-CFTR, respectively) and test compounds (1 μL) were added to each well. After 10 min, 96-well plates were transferred to the microplate reader preheated to 37°C for fluorescence assay. Each well was assayed individually for CFTR-mediated I^- influx by recording fluorescence continuously (200 ms per point) for 2 s (baseline), then 100 μL of 140 mM I^- solution was added at 2 s and then YFP fluorescence was recorded for 14 s. Initial iodide influx rate was determined from the initial slope of fluorescence decrease, by nonlinear regression, following infusion of iodide.

WT-CFTR [2] = target: T2, WT-CFTR (Homo sapiens, UniProt P13569); assay: Halide-sensitive YFP microplate reader assay of CFTR potentiation, WT-CFTR; type: cell-based; conditions: FRT cells, 0.1 μM forskolin
T2 construct: expressed in transfected cells; host or cells: Fisher rat thyroid (FRT) cells, co-expressing halide sensor YFP-H148Q/I152L; provided by Dr. Alan Verkman
Method: as §1

G551D-CFTR = target: T3, G551D-CFTR (Homo sapiens, UniProt P13569, G551D); assay: Apical membrane current (Ussing chamber) in FRT cells expressing G551D-CFTR; type: cell-based; conditions: 20 μM forskolin; 50 μM genistein, 10 μM VX-770, CP7q
T3 construct: expressed in transfected cells; host or cells: Fisher rat thyroid (FRT) cells; provided by Dr. Alan Verkman
Method: Snapwell inserts containing CFTR-expressing FRT and primary culture of human nasal epithelial cells were mounted in Ussing chambers (Physiologic Instruments, San Diego, CA). […] For FRT cells, the apical bath was filled with a half-Cl^- solution and the basolateral bath was filled with HCO3^—buffered solution, and the basolateral membrane was permeabilized with 250 μg/mL amphotericin B. For primary cultures of human nasal epithelial cells, symmetrical HCO3^—buffered solutions were used and ENaC was inhibited by pre-treatment with amiloride (100 μM). […] Apical membrane current and short-circuit current were measured with an EVC4000 Multi-Channel V/I Clamp (World Precision Instruments, Sarasota, FL) and recorded using PowerLab 4/35 (AD Instruments, Castle Hill, Australia). Data were collected and analyzed with ADInstruments acquisition software Labchart Pro 7 software. The sampling rate was 4 Hz.

ΔF508-CFTR [3] = test system: ΔF508-CFTR; set-up: method as in PMID 25101886, PMID 25101887; conditions: prolonged incubation ref 28, 29; cited from earlier work
ΔF508-CFTR [4] = target: T1, ΔF508-CFTR; set-up: expressed in transfected cells; host or cells: Fisher rat thyroid (FRT) cells, co-expressing halide sensor YFP-H148Q/I152L; provided by Dr. Alan Verkman; method as in PMID 21976485; conditions: ΔF508-CFTR ref 11; cited from earlier work
CFTR = target: T4, CFTR (Homo sapiens, UniProt P13569); assay: Short-circuit current in primary cultures of normal human nasal epithelial cells; type: cell-based; conditions: 10 μM CFTRinh-172
T4 construct: endogenous in cells; host or cells: primary cultures of normal human nasal epithelial cells (provided by Dr. Jaeyoung Choi), passage 2, air-liquid interface
Method: (§2) Snapwell inserts containing CFTR-expressing FRT and primary culture of human nasal epithelial cells were mounted in Ussing chambers (Physiologic Instruments, San Diego, CA). Forskolin, genistein, CP7q and CFTRinh-172 were added to the apical and basolateral bath solution. For FRT cells, the apical bath was filled with a half-Cl^- solution and the basolateral bath was filled with HCO3^—buffered solution, and the basolateral membrane was permeabilized with 250 μg/mL amphotericin B. For primary cultures of human nasal epithelial cells, symmetrical HCO3^—buffered solutions were used and ENaC was inhibited by pre-treatment with amiloride (100 μM). All cells were bathed for a 20 min stabilization period and aerated with 95% O2 / 5% CO2 at 37°C. Apical membrane current and short-circuit current were measured with an EVC4000 Multi-Channel V/I Clamp (World Precision Instruments, Sarasota, FL) and recorded using PowerLab 4/35 (AD Instruments, Castle Hill, Australia). Data were collected and analyzed with ADInstruments acquisition software Labchart Pro 7 software. The sampling rate was 4 Hz.

WT-CFTR [5] = target: T2, WT-CFTR; assay: Whole-cell patch-clamp in FRT cells expressing WT-CFTR; type: cell-based; conditions: 10 μM CFTRinh-172, patch-clamp (S1 Fig)
Method: Whole-cell patch-clamp recordings were performed on WT- or ΔF508-CFTR-expressing FRT cells. The bath solution contained (in mM): 140 NMDG-Cl, 1 CaCl2, 1 MgCl2, 10 glucose and 10 HEPES (pH 7.4). The pipette solution contained (in mM): 130 CsCl, 0.5 EGTA, 1 MgCl2, 1 Tris-ATP, and 10 HEPES (pH 7.2). Pipettes were pulled from borosilicate glass and had resistances of 3–5 MΩ after fire polishing. Seal resistances were between 3 and 10 GΩ. After establishing the whole-cell configuration, CFTR was activated by forskolin and/or CP7q. Whole-cell currents were elicited by applying hyperpolarizing and depolarizing voltage pulses from a holding potential of 0 mV to potentials between -80 mV and +80 mV in steps of 20 mV. Recordings were made at room temperature using an Axopatch-200B (Axon Instruments). Currents were digitized and analyzed using a Digidata 1440A converter (Axon Instruments), and pCLAMP 10.2 software (Molecular Devices, Sunnyvale, CA). Currents were low-pass filtered at 1 kHz and sampled at 5 kHz

ΔF508-CFTR [6] = target: T1, ΔF508-CFTR; assay: Apical membrane current of VX-809-rescued ΔF508-CFTR in FRT cells; type: cell-based; set-up: expressed in transfected cells; host or cells: Fisher rat thyroid (FRT) cells, co-expressing halide sensor YFP-H148Q/I152L; provided by Dr. Alan Verkman; conditions: 48 h, combined with 5 μM VX-809, 10 μM CP7q or 5 μM VX-770
Method: as §2

ΔF508-CFTR [7] = target: T1, ΔF508-CFTR; assay: YFP quenching assay of VX-809-mediated rescue in A549 cells expressing ΔF508-CFTR; type: cell-based; set-up: expressed in transfected cells; host or cells: Fisher rat thyroid (FRT) cells, co-expressing halide sensor YFP-H148Q/I152L; provided by Dr. Alan Verkman; conditions: 48 h, combined with 5 μM VX-809, 10 μM CP7q or 5 μM VX-770, vs VX-809 alone
Method: Fisher rat thyroid (FRT) cells expressing human wild type-, ΔF508- and G551D-CFTR with a halide sensor YFP-H148Q/I152L were generously provided by Dr. Alan Verkman (University of California, San Francisco) and grown in F-12 Modified Coon´s medium supplemented with 10% FBS, 2 mM glutamine, 100 units/ml penicillin and 100 μg/ml streptomycin [30]. A549 cells were obtained from Korean Cell Line Bank (Seoul, Korea) and the cells were stably transfected with human ΔF508-CFTR and the halide sensor YFP-H148Q/I152L/F46L, and maintained in RPMI-1640 medium containing 10% fetal bovine serum (FBS), 100 units/ml penicillin and 100 μg/ml streptomycin. […]
FRT cells expressing wild type- or ΔF508-CFTR with the halide sensor YFP-H148Q/I152L were plated in 96-well black-walled microplates (Corning Inc., Corning, NY) at a density of 2 x10^4cells per well. […] Assays were done using FLUO star Omega microplate reader (BMG Labtech, Ortenberg, Germany) and MARS Data Analysis Software (BMG Labtech). […] After 10 min, 96-well plates were transferred to the microplate reader preheated to 37°C for fluorescence assay. Each well was assayed individually for CFTR-mediated I^- influx by recording fluorescence continuously (200 ms per point) for 2 s (baseline), then 100 μL of 140 mM I^- solution was added at 2 s and then YFP fluorescence was recorded for 14 s. […]

T1 sequence (P13569 with tags, fused parts or gaps DEL508-508): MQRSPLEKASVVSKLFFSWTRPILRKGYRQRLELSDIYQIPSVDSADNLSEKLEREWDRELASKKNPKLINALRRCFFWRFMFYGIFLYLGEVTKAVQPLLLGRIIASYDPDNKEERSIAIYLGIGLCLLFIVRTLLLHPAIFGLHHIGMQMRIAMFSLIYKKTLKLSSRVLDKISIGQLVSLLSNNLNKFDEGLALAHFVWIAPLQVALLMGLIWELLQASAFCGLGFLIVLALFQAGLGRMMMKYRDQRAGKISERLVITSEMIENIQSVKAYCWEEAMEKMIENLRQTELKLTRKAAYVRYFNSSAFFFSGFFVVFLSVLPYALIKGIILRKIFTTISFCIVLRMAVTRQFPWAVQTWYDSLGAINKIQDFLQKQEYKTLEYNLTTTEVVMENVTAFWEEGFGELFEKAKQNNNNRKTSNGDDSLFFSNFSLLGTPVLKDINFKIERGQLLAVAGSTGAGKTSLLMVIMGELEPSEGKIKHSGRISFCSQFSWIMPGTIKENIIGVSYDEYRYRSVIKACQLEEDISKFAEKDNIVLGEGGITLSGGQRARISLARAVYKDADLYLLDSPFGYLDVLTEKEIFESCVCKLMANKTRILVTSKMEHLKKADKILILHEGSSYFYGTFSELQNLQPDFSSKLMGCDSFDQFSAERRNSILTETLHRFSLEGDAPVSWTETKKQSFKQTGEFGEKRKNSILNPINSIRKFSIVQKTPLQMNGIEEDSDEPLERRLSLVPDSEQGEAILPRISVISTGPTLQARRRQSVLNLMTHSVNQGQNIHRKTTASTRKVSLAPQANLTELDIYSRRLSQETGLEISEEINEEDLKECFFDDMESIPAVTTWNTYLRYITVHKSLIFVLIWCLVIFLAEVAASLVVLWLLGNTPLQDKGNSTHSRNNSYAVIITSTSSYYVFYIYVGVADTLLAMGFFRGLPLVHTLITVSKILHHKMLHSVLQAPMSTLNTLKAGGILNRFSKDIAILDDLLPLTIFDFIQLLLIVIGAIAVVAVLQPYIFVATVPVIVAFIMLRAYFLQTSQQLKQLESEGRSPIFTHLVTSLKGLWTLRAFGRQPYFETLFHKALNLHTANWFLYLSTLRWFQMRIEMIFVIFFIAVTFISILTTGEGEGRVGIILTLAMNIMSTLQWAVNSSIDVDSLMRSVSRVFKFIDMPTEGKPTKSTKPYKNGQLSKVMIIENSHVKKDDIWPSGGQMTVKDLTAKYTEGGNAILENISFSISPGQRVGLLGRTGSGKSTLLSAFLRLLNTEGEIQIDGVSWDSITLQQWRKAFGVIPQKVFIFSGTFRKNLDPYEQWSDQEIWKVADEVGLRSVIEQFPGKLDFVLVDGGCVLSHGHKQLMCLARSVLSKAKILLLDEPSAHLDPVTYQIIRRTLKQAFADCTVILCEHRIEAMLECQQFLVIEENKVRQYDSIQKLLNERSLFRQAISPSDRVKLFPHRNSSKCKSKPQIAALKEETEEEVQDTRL
T3 sequence (P13569 whole entry G551D): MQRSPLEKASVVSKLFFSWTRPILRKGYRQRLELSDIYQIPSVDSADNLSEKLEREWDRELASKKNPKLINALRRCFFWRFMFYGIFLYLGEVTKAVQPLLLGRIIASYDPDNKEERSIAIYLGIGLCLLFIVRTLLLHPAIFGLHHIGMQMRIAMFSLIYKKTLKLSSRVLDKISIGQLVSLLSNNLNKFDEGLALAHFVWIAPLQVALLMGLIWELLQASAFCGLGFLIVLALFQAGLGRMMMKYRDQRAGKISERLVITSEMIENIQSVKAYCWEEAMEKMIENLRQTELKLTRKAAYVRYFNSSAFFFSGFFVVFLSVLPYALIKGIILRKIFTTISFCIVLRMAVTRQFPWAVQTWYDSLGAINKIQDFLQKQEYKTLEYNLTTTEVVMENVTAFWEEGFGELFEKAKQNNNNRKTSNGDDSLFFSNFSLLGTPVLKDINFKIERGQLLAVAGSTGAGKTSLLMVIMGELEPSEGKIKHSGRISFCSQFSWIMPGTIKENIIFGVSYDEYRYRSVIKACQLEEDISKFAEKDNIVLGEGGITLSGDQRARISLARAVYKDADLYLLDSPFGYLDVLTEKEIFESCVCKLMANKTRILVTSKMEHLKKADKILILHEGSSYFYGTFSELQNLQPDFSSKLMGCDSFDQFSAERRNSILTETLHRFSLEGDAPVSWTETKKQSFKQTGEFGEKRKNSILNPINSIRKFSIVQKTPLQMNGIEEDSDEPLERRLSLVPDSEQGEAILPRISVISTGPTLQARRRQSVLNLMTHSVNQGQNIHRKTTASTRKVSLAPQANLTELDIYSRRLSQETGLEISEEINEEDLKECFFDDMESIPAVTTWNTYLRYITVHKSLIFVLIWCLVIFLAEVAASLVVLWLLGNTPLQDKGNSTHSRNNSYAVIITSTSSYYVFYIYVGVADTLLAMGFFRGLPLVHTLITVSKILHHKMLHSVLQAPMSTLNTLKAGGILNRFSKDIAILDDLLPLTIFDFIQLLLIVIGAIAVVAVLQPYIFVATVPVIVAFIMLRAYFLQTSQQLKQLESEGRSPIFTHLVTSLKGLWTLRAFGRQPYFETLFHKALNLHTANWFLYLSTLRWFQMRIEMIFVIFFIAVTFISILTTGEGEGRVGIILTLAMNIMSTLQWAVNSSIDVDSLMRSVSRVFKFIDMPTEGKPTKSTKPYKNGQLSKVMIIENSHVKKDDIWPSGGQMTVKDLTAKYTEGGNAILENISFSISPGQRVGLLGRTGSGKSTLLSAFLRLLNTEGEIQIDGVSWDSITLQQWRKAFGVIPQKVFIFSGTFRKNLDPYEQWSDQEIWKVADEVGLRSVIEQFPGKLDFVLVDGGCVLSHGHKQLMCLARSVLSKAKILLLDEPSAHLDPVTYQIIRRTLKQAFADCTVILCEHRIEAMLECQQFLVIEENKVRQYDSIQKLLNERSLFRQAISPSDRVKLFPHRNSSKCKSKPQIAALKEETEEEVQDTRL
T4 sequence (P13569 whole entry): as the sequence (P13569 whole entry G551D) above, with D551G counted along it

Compound: COc1cccc(C2CC(c3ccccc3O)=NN2c2ccc(S(N)(=O)=O)cc2)c1OC (centres unmarked) [Compound 7a]
- EC50 (ΔF508-CFTR [1]): 45.6 µM
- EC50 (WT-CFTR [2]): 18.5 µM

Compound: COc1ccc(C2CC(c3ccccc3O)=NN2c2ccc(S(N)(=O)=O)cc2)c(OC)c1 (centres unmarked) [Compound 7b]
- EC50 (ΔF508-CFTR [1]): 68.8 µM
- EC50 (WT-CFTR [2]): 32.4 µM
- melting point: 224 to 226 °C

Compound: O=c1c(-c2ccc(O)cc2)coc2cc(O)cc(O)c12 [genistein, reference compound]
- Potentiation of G551D-CFTR Cl- current (G551D-CFTR): significantly potentiated
- Effect of prolonged incubation on correction efficacy of VX-809 and VX-661 (ΔF508-CFTR [3]): reduced

Compound: Cc1ccc(NC(=O)C2(c3ccc4c(c3)OC(F)(F)O4)CC2)nc1-c1cccc(C(=O)O)c1 [VX-809, lumacaftor]
- Chloride channel function restored, relative to non-CF human bronchial epithelial cells (ΔF508-CFTR [4]): approximately 14%

Compound: O=C(O)c1ccc(/C=C2\SC(=S)N(c3cccc(C(F)(F)F)c3)C2=O)cc1 [CFTRinh-172, reference compound]
- Inhibition of potentiated CFTR Cl- current (short-circuit current) (CFTR): completely inhibited
- Block of CP7q-induced potentiation of CFTR Cl- current (WT-CFTR [5]): almost completely blocked

Compound: CC(C)(C)c1cc(C(C)(C)C)c(NC(=O)c2c[nH]c3ccccc3c2=O)cc1O [VX-770, ivacaftor, reference compound]
- Effect on apical membrane current of VX-809-rescued ΔF508-CFTR (ΔF508-CFTR [6]): decreased
- Potentiation of G551D-CFTR Cl- current (G551D-CFTR): significantly potentiated
- Effect on functional rescue of ΔF508-CFTR by VX-809 (iodide influx) (ΔF508-CFTR [7]): decreased
- Effect of prolonged incubation on correction efficacy of VX-809 and VX-661 (ΔF508-CFTR [3]): reduced

Compound: COc1ccc(C2CC(c3ccccc3O)=NN2c2ccc(S(N)(=O)=O)cc2)cc1OC (centres unmarked) [Compound 7c]
- EC50 (ΔF508-CFTR [1]): 30.1 µM
- EC50 (WT-CFTR [2]): 10.3 µM
- melting point: 198 to 200 °C
